In assay [1] the test system is SCC4 cells of head and neck cancer. The experiment in a line: transwell migration test. It is filed as cell-based, human. The following applies: 24 h. The protocol: Inoculate SCC4 cells of head and neck cancer, SW579 cells of thyroid cancer, A549 cells of lung cancer, TE13 cells of esophageal squamous cell carcinoma, MGC803 cells of stomach cancer, MDA-MB-231 cells of breast cancer, UOK262 cells of kidney cancer, and A431 cells of skin cancer of human to transwell cells, 100 μL per well, and meanwhile add micropeptides HMMW I to IX at different doses to every cell. Add 0.6 mL of complete medium containing 10% FBS to the transwell cells to stimulate cell migration, and culture in 5% CO2 at 37 DEG C. for 24 h. Discard the medium in the wells, fix with 90% alcohol at room temperature for 30 min, stain with 0.1% crystal violet at room temperature for 10 min, rinse with clear water, gently wipe off the non-migrated cells in the upper layer with a cotton swab, observe under a microscope and select four fields of view to take pictures and count. Calculate the migration inhibition rate (MIR) of the cells according to the following formula: […]
The test was repeated independently three times. Mean±SD was calculated based on the test results. Statistical t test was done. Here, “the test was repeated independently three times” means that every dose of any type of cells was tested repeatedly three times, and then the above formula was used to calculate the number of migrated cells (Mean±SD). Value P was used to express statistical difference. The statistical significance of the results is a method for estimating how true the results are (the totality can be represented), *P<0.05 means significant difference, and **P<0.01 means very significant difference.

Assay [2] relates to A431 cells of skin cancer. It is filed as in vivo, BALB/c nude mice. The following applies: for in vivo tumor growth inhibition rate: mouse, 15 mg/kg. As for the experimental part:
(§1) • (1) Massively culture SCC4 cells of head and neck cancer, SW579 cells of thyroid cancer, A549 cells of lung cancer, TE13 cells of esophageal squamous cell carcinoma, MGC803 cells of stomach cancer, MDA-MB-231 cells of breast cancer, UOK262 cells of kidney cancer, and A431 cells of skin cancer of human, digest with a 0.25% pancreatin solution, centrifuge the cell suspension at 1,000 rpm for 5 min after termination of digestion, re-suspend the cells by serum-free DMEM culture medium, then count the cells and adjust cell concentration to 5×10^7 cells/ml; • (2) Inoculate each nude mouse (female mice at the age of 4-6 weeks and with a weight of 14-16 g were ordered and adaptively reared for 1 week in an SPF animal breeding room) with 100 μl of the cell suspension of the corresponding group in the left armpit, and the number of cells injected is 5×10^6; • (3) After inoculation, the tumor growth at the inoculation sites of nude mice was closely observed. On the 7th day after inoculation, white scabs appeared at the inoculation sites, which could move subcutaneously after being touched. With the growth of tumor tissue, hard tumor masses were gradually formed at the inoculation sites. On about the 14th day, the average volume of the tumor tissue reached 100 mm^3. BALB/c nude mice were randomly divided into three groups (the normal saline group was a blank control group, the micropeptide HMMW at a dose of 10 mg/kg was a low-dose group, and the micropeptide HMMW at a dose of 15 mg/kg was a high-dose group), 6 mice in each group, and the animals weighed 16-18 g at the beginning of administration; • (4) The volume of the transplanted tumor was measured and recorded every two days. The calculation formula of tumor volume (TV) is shown below: TV=0.5×a×b^2 • where, a is the length of the transplanted tumor (mm), and b is the width of the transplanted tumor (mm). • (1) Massively culture SCC4 cells of head and neck cancer, SW579 cells of thyroid cancer, A549 cells of lung cancer, TE13 cells of esophageal squamous cell carcinoma, MGC803 cells of stomach cancer, MDA-MB-231 cells of breast cancer, UOK262 cells of kidney cancer, and A431 cells of skin cancer of human, digest with a 0.25% pancreatin solution, centrifuge the cell suspension at 1,000 rpm for 5 min after termination of digestion, re-suspend the cells by serum-free DMEM culture medium, then count the cells and adjust cell concentration to 5×10^7 cells/ml; • (2) Inoculate each nude mouse (female mice at the age of 4-6 weeks and with a weight of 14-16 g were ordered and adaptively reared for 1 week in an SPF animal breeding room) with 100 μl of the cell suspension of the corresponding group in the left armpit, and the number of cells injected is 5×10^6; • (3) After inoculation, the tumor growth at the inoculation sites of nude mice was closely observed. On the 7th day after inoculation, white scabs appeared at the inoculation sites, which could move subcutaneously after being touched. With the growth of tumor tissue, hard tumor masses were gradually formed at the inoculation sites. On about the 14th day, the average volume of the tumor tissue reached 100 mm^3. BALB/c nude mice were randomly divided into three groups (the normal saline group was a blank control group, and each of micropeptides HMMW I to IX formed a group at a dose of 15 mg/kg), 6 mice in each group, and the animals weighed 16-18 g at the beginning of administration; • (4) The volume of the transplanted tumor was measured and recorded every two days. The calculation formula of tumor volume (TV) is shown below: TV=0.5×a×b^2 • where, a is the length of the transplanted tumor (mm), and b is the width of the transplanted tumor (mm).

For assay [3], the system named is A549 cells of lung cancer. It is filed as in vivo, BALB/c nude mice. Conditions: for in vivo tumor growth inhibition rate: mouse, 15 mg/kg. As for the experimental part:
as §1

Assay [4] concerns MDA-MB-231 cells of breast cancer. It is filed as in vivo, BALB/c nude mice. The following applies: for in vivo tumor growth inhibition rate: mouse, 15 mg/kg. The protocol: as §1
In assay [5] the test system is MGC803 cells of stomach cancer. It is filed as in vivo, BALB/c nude mice. Conditions: for in vivo tumor growth inhibition rate: mouse, 15 mg/kg. As for the experimental part:
as §1

In assay [6] the test system is SCC4 cells of head and neck cancer. It is filed as in vivo, BALB/c nude mice. The following applies: for in vivo tumor growth inhibition rate: mouse, 15 mg/kg. As for the experimental part: as §1
Assay [7] relates to SW579 cells of thyroid cancer. It is filed as in vivo, BALB/c nude mice. Conditions: for in vivo tumor growth inhibition rate: mouse, 15 mg/kg. As for the experimental part: as §1
In assay [8] the test system is TE13 cells of esophageal squamous cell carcinoma. It is filed as in vivo, BALB/c nude mice. Conditions: for in vivo tumor growth inhibition rate: mouse, 15 mg/kg. As for the experimental part:
as §1

Assay [9] has as its system UOK262 cells of kidney cancer. It is filed as in vivo, BALB/c nude mice. The following applies: for in vivo tumor growth inhibition rate: mouse, 15 mg/kg. As for the experimental part:
as §1

No end group written: not given here.

As for “MERAGVPGFSPRRSSVEAKMQSTSCSVRKSSTVTAWPAVVLLLHTSKDDEE-OH [HMMW-II]”, the results for the migration inhibition rate in assay [1] (dose 1 μM), in assay [1] (dose 4 μM) and in assay [1] (dose 16 μM) were 18.81%, 43.67% and 75.04%, respectively. Besides, the “in vivo tumor growth inhibition rate” value in [2] stood at 71.22%; in [3], 71.32%; in assay [4], 68.95%; in [5], 70.08%; in assay [6] it was 66.24%; in assay [7] it was 64.76%. The results for the “in vivo tumor growth inhibition rate” value in [8] and in assay [9] were 62.86% and 63.12%, respectively.

As for “MERAGVPGFSPRRSSVEAKMQSTSCSVRKSSTVTAWPAVVLLLSWGKDDEE-OH [HMMW-IV]”, the figures for the migration inhibition rate in assay [1] (dose 1 μM), in assay [1] (dose 4 μM) and in assay [1] (dose 16 μM) were 16.84%, 43.91% and 75.04%, respectively. Moreover, the “in vivo tumor growth inhibition rate” value is recorded as 71.71% in assay [2]; 68.25% in assay [3]; 65.93% in assay [4]; 67.52% in [5]; 71.72% in assay [6]; 72.13% in [7]. The “in vivo tumor growth inhibition rate” value in [8] was determined as 61.41%; in assay [9], 64.70%.

Turning to “MERAGVPGFSPRRSSVEAKMQSTSCSVRKSSTVTAWPAVVLLLSWGQRDEE-OH [HMMW-VI]”, the migration inhibition rate is 16.69% in [1] (dose 1 μM), 42.81% in [1] (dose 4 μM) and 71.04% in assay [1] (dose 16 μM). The “in vivo tumor growth inhibition rate” value in assay [2] came to 68.25%; in assay [3], 65.27%; in [4], 71.18%; in [5] it was 66.51%; in [6] it was 73.54%; in assay [7], 66.79%. The entries for the “in vivo tumor growth inhibition rate” value in assay [8] and in assay [9] were 65.56% and 65.19%, respectively.

For the substance “MERAGVPGFSPRRSSVEAKMQSTSCSVRKSSTVTAWPAVVLLLSWGQRRGE-OH [HMMW-VIII]”, the migration inhibition rate was 17.80% in assay [1] (dose 1 μM), 42.92% in assay [1] (dose 4 μM) and 72.35% in [1] (dose 16 μM). In addition, the “in vivo tumor growth inhibition rate” value stood at 68.21% in assay [2]; 69.30% in assay [3]; 69.82% in assay [4]; 69.38% in assay [5]; 68.24% in [6]; 71.76% in assay [7]. Further, the figures for the “in vivo tumor growth inhibition rate” value in assay [8] and in [9] were 68.81% and 65.15%, respectively.

In the case of “MERAGVPGFSPRRSSVEAKMQSTSCSVRKSSTVTAWPAVVLLLSWGQRRGG-OH [HMMW-I]”, the migration inhibition rate in assay [1] (dose 1 μM) was 17.85%; in [1] (dose 4 μM), 42.97%; in [1] (dose 16 μM) it was 77.00%. For the same substance, the “inhibition of tumorigenicity in vivo” value is “significantly inhibit” in assay [2] (A431, nude mice, 10 and 15 mg/kg, vs normal saline, dose-dependent (Embodiment 6)); “significantly inhibit” in assay [3] (A549, nude mice, 10 and 15 mg/kg, vs normal saline, dose-dependent (Embodiment 6)); “significantly inhibit” in [4] (MDA-MB-231, nude mice, 10 and 15 mg/kg, vs normal saline, dose-dependent (Embodiment 6)); “significantly inhibit” in [5] (MGC803, nude mice, 10 and 15 mg/kg, vs normal saline, dose-dependent (Embodiment 6)); “significantly inhibit” in assay [6] (SCC4, nude mice, 10 and 15 mg/kg, vs normal saline, dose-dependent (Embodiment 6)); “significantly inhibit” in [7] (SW579, nude mice, 10 and 15 mg/kg, vs normal saline, dose-dependent (Embodiment 6)). The “inhibition of tumorigenicity in vivo” value in assay [8] (TE13, nude mice, 10 and 15 mg/kg, vs normal saline, dose-dependent (Embodiment 6)) was “significantly inhibit”; in [9] (UOK262, nude mice, 10 and 15 mg/kg, vs normal saline, dose-dependent (Embodiment 6)), “significantly inhibit”. Besides, the “in vivo tumor growth inhibition rate” value in assay [2] amounted to 62.74%; in assay [3], 69.23%; in [4], 67.97%; in assay [5], 68.12%; in assay [6], 72.56%; in assay [7], 66.63%. Also, the “in vivo tumor growth inhibition rate” value was found to be 65.43% in [8] and 63.80% in assay [9].

For the substance “MGRAGVPGFSPRRSSVEAKMQSTSCSVRKSSTVTAWPAVVLLLSWGQRRGG-OH [HMMW-IX]”, the results for the migration inhibition rate in assay [1] (dose 1 μM), in [1] (dose 4 μM) and in [1] (dose 16 μM) were 18.81%, 43.97% and 74.00%, respectively. For the same substance, the “in vivo tumor growth inhibition rate” value is 64.33% in assay [2]; 69.09% in assay [3]; 69.36% in [4]; 68.61% in [5]; 71.84% in assay [6]; 67.89% in assay [7]. For the same substance, the “in vivo tumor growth inhibition rate” value in assay [8] was 65.31%; in assay [9] it was 65.23%.

With “MGSTGVPGFSPRRSSVEAKMQSTSCSVRKSSTVTAWPAVVLLLSWGQRRGG-OH [HMMW-VII]”, the migration inhibition rate worked out at 17.42% in [1] (dose 1 μM), 44.61% in assay [1] (dose 4 μM) and 72.34% in [1] (dose 16 μM). Besides, the “in vivo tumor growth inhibition rate” value in assay [2] is given as 67.70%; in [3], 69.13%; in [4], 68.91%; in assay [5], 65.11%; in [6], 72.75%; in [7], 68.63%. For the same substance, the results for the “in vivo tumor growth inhibition rate” value in assay [8] and in assay [9] were 71.23% and 64.37%, respectively.
